According to US9765057B2, “3-ester-4 substituted orexin receptor antagonists” (MERCK SHARP & DOHME CORP., priority 2012, dated 2017):

Tests used:
human orexin-2 receptor = human orexin-2 receptor (Homo sapiens (Human), UniProt O43614); assay: FLIPR Ca2+ Flux Assay, hOX2R; format: cell-based; details: CHO cells expressing the human orexin-2 receptor; agonist 70 pM Ala-6,12 orexin-A
Description: In a typical experiment the OX1 and OX2 receptor antagonistic activity of the compounds of the present invention was determined in accordance with the following experimental method. For intracellular calcium measurements, Chinese hamster ovary (CHO) cells expressing the rat orexin-1 receptor or the human orexin-2 receptor, are grown in Iscove's modified DMEM containing 2 mM L-glutamine, […], 1% hypoxanthine-thymidine supplement, 100 U/ml penicillin, 100 μg/ml streptomycin and 10% heat-inactivated fetal calf serum (FCS). The cells are seeded at 20,000 cells/well into Becton-Dickinson black 384-well clear bottom sterile plates coated with poly-D-lysine. All reagents were from GIBCO-Invitrogen Corp. The seeded plates are incubated overnight at 37° C. and 5% CO2. Ala-6,12 human orexin-A as the agonist is prepared as a 1 mM stock solution in 1% bovine serum albumin (BSA) and diluted in assay buffer (HBSS containing 20 mM HEPES, 0.1% BSA and 2.5 mM probenecid, pH7.4) for use in the assay at a final concentration of 70 pM. Test compounds are prepared as 10 mM stock solution in DMSO, then diluted in 384-well plates, first in DMSO, then assay buffer. On the day of the assay, cells are washed 3 times with 100 μl assay buffer and then incubated for 60 min (37° C., 5% CO2) in 60 μl assay buffer containing 1 μM Fluo-4AM ester, 0.02% pluronic acid, and 1% BSA. The dye loading solution is then aspirated and cells are washed 3 times with 100 μl assay buffer. 30 μl of that same buffer is left in each well. Within the Fluorescent Imaging Plate Reader (FLIPR, Molecular Devices), test compounds are added to the plate in a volume of 25 μl, incubated for 5 min and finally 25 μl of agonist is added. Fluorescence is measured for each well at 1 second intervals for 5 minutes and the height of each fluorescence peak is compared to the height of the fluorescence peak induced by 70 pM Ala-6,12 orexin-A with buffer in place of antagonist. For each antagonist, IC50 value (the concentration of compound needed to inhibit 50% of the agonist response) is determined Alternatively, compound potency can be assessed by a radioligand binding assay (described in Bergman et. al. Bioorg. Med. Chem. Lett. 2008, 18, 1425-1430) in which the inhibition constant (Ki) is determined in membranes prepared from CHO cells expressing either the OX1 or OX2 receptor. The intrinsic orexin receptor antagonist activity of a compound which may be used in the present invention may be determined by these assays.

hOX1R = hOX1R (Homo sapiens, UniProt O43613); assay: FLIPR Ca2+ Flux Assay, hOX1R; format: cell-based; details: CHO cells expressing orexin-1 receptor; agonist 70 pM Ala-6,12 orexin-A

Sequence of human orexin-2 receptor (O43614 whole entry): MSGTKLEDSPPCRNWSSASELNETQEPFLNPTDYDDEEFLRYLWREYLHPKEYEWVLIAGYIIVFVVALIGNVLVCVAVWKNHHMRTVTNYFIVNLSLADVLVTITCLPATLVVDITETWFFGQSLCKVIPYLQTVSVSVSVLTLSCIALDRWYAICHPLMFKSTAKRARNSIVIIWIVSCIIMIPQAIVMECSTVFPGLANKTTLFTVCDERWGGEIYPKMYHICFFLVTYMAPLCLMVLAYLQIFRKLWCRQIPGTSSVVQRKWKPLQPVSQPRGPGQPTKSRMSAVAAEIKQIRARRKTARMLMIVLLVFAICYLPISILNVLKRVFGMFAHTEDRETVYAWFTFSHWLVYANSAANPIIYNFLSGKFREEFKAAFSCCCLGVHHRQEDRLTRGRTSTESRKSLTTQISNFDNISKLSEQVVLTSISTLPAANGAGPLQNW

Row | SMILES | IC50 (human orexin-2 receptor) | IC50 (hOX1R)
1 | CCOC(=O)c1c(C)ccnc1O[C@@H]1CC[C@@H](C)N(C(=O)c2ccccc2-n2nccn2)C1 [Example 1, Ethyl 4-methyl-2-{[(3R,6R)-6-methyl-1-{[2-(2H-1,2,3-triazol-2-yl)phenyl]carbonyl}piperidin-3-yl]oxy}pyridine-3-carboxylate] | 8.3 nM | 79 nM
2 | COC(=O)c1c(C)ccnc1O[C@@H]1CC[C@@H](C)N(C(=O)c2ccccc2-n2nccn2)C1 [Example 2, methyl 4-methy1-2-{[(3R,6R)-6-methyl-1-{[2-(2H-1,2,3-triazol-2-yl)phenyl]carbonyl}piperidin-3-yl]oxy}pyridine-3-carboxylate] | 17.4 nM | 86.2 nM
3 | COC(=O)c1c(SC)ccnc1O[C@@H]1CC[C@@H](C)N(C(=O)c2ccccc2-n2nccn2)C1 [Example 3, methyl 4-(methylsulfanyl)-2-{[(3R,6R)-6-methyl-1-{[2-(2H-1,2,3-triazol-2-yl)phenyl]carbonyl}-piperidin-3-yl]oxy}pyridine-3-carboxylate] | 10 nM | 618 nM
4 | COC(=O)c1c(SC)ccnc1O[C@@H]1CC[C@@H](C)N(C(=O)c2ccccc2-c2ncccn2)C1 [Example 4, Methyl 2-({(3R,6R)-6-methyl-1-{(2-pyrimidin-2ylphenyl)carbonyl}piperidin-3yl}oxy)-4-(methylsulfanyl)pyridine-3-carboxylate] | 28.3 nM | 554 nM
5 | COC(=O)c1c(SC)ccnc1O[C@@H]1CC[C@@H](C)N(C(=O)c2cc(F)ccc2-c2ncccn2)C1 [Example 5, methyl 2-({(3R,6R)-1-[(5-fluoro-2-pyrimidin-2-ylphenyl)carbonyl]-6-methylpiperidin-3-yl}oxy)-4-(methylsulfanyl)pyridine-3-carboxylate] | 72.9 nM | 880 nM
6 | COC(=O)c1c(SC)ccnc1O[C@@H]1CC[C@@H](C)N(C(=O)c2ccc(F)cc2-c2ncccn2)C1 [Example 6, methyl 2-({(3R,6R)-1-[(4-fluoro-2-pyrimidin-2-ylphenyl)carbonyl]-6-methylpiperidin-3-yl}oxy)-4-(methylsulfanyl)pyridine-3-carboxylate] | 31.6 nM | 888 nM
7 | COC(=O)c1c(SC)ccnc1O[C@@H]1CC[C@@H](C)N(C(=O)c2cccc(F)c2-c2ncccn2)C1 [Example 7, methyl 2-({(3R,6R)-1-[(3-fluoro-2-pyrimidin-2-ylphenyl)carbonyl]-6-methylpiperidin-3-yl}oxy)-4-(methylsulfanyl)pyridine-3-carboxylate] | 37.8 nM | 1030 nM
8 | COC(=O)c1c(N2CCC2)ccnc1O[C@@H]1CC[C@@H](C)N(C(=O)c2ccccc2-n2nccn2)C1 [Example 8, Methyl 4-azetidin-1-yl-2-{[(3R,6R)-6-methyl-1-{[2-(2H-1,2,3-triazol-2-yl)phenyl]carbonyl}piperidin-3-yl]oxy}pyridine-3-carboxylate] | 33 nM | 743 nM
9 | COC(=O)c1c(N2CCN(C)CC2)ccnc1O[C@@H]1CC[C@@H](C)N(C(=O)c2ccccc2-n2nccn2)C1 [Example 9, methyl 4-(4-methylpiperazin-1-yl)-2-{[(3R,6R)-6-methyl-1-{[2-(2H-1,2,3-triazol-2-yl)phenyl]carbonyl}-piperidin-3-yl]oxy}pyridine-3-carboxylate] | 1530 nM | 10000 nM
10 | CCc1ccnc(O[C@@H]2CC[C@@H](C)N(C(=O)c3ccccc3-n3nccn3)C2)c1C(=O)OC [Example 10, Methyl 4-ethyl-2-{[(3R,6R)-6-methyl-1-{[2-(2H-1,2,3-triazol-2-yl)phenyl]carbonyl}piperidin-3-yl]oxy}pyridine-3-carboxylate] | 21.1 nM | 74.9 nM
11 | COC(=O)c1c(C(C)(C)C)ccnc1O[C@@H]1CC[C@@H](C)N(C(=O)c2ccccc2-n2nccn2)C1 [Example 11] | 1010 nM | 2050 nM
12 | COC(=O)c1c(C(C)C)ccnc1O[C@@H]1CC[C@@H](C)N(C(=O)c2ccccc2-n2nccn2)C1 [Example 12, methyl 4-(1-methylethyl)-2-{[(3R,6R)-6-methyl-1-{[2-(2H-1,2,3-triazol-2-yl)phenyl]carbonyl}-piperidin-3-yl]oxy}pyridine-3-carboxylate] | 5.46 nM | 80 nM
13 | COC(=O)c1c(C2CC2)ccnc1O[C@@H]1CC[C@@H](C)N(C(=O)c2ccccc2-n2nccn2)C1 [Example 13, methyl 4-cyclopropyl-2-{[(3R,6R)-6-methyl-1-{[2-(2H-1,2,3-triazol-2-yl)phenyl]carbonyl}piperidin-3-yl]oxy}pyridine-3-carboxylate] | 530 nM | 803 nM
14 | COC(=O)c1c(C2CCC2)ccnc1O[C@@H]1CC[C@@H](C)N(C(=O)c2ccccc2-n2nccn2)C1 [Example 14, methyl 4-cyclobutyl-2-{[(3R,6R)-6-methyl-1-{[2-(2H-1,2,3-triazol-2-yl)phenyl]carbonyl}piperidin-3-yl]oxy}pyridine-3-carboxylate] | 272 nM | 5580 nM
15 | COC(=O)c1c(C)cccc1O[C@@H]1CC[C@@H](C)N(C(=O)c2ccccc2-n2nccn2)C1 [Example 15, methyl 2-methyl-6-{[(3R,6R)-6-methyl-1-{[2-(2H-1,2,3-triazol-2-yl)phenyl]carbonyl}piperidin-3-yl]oxy}benzoate] | 36.2 nM | 1930 nM
16 | COC(=O)c1c(O[C@@H]2CC[C@@H](C)N(C(=O)c3ccccc3-n3nccn3)C2)cccc1C(C)C [Example 16, methyl 2-(1-methylethyl)-6-{[(3R,6R)-6-methyl-1-{[2-(2H-1,2,3-triazol-2-yl)phenyl]carbonyl}-piperidin-3-yl]oxy}benzoate] | 68.8 nM | 1460 nM
17 | CCOC(=O)c1c(CC)ccnc1O[C@@H]1CC[C@@H](C)N(C(=O)c2ccccc2-n2nccn2)C1 [Example 17, Ethyl 4-ethyl-2-{[(3R,6R)-6-methyl-1-{[2-(2H-1,2,3-triazol-2-yl)phenyl]carbonyl}piperidin-3-yl]oxy}pyridine-3-carboxylate] | 40.4 nM | 172 nM
